Consider 2 molecules from patent US20130178479A1, “PHARMACEUTICAL COMBINATIONS” (NOVARTIS AG, priority 2010, published 2013).

Structures are written as SMILES. Like-named read-outs stand apart in the source and are kept apart here. Some results are limits rather than exact numbers.

Assay [1] has as its system RPMI 8226 human Multiple Myeloma cancer cells. The assay is described as follows: Cell proliferation assay (CellTiter-Glo) in RPMI 8226. The assay is classed as cell-based. Particulars: for IC50: Homo sapiens. On the procedure: (§1) Celt Proliferation Assay: Cell viability was determined by measuring cellular ATP content using the CellTiter-Glo® Luminescent Cell Viability Assay (Promega #G7573) according to manufacturer's protocol. Briefly, 1500-50000 cells were plated on either 384 or 96 well plates in 30 μl (384 well) or 100 μl (96 well) growth media, cells were: allowed to attach overnight and followed by 72 hrs of incubation with various concentration of drugs or drug combinations (10 μl per well in 384 well plates), at the end of the drug treatment, 30 μl of the CellTiter-Glo regent were added to each well (384 well plates) to lyse the cell, and luminescence signals were recorded on a Envision plate reader.
(§2) Method for calculating the effect of the Combination: To evaluate the everolimus and Compound A combination effect in a non-bias way and to identify synergistic effect at all possible concentrations, the combination studies were conducted with a “dose matrix”, where a combination is tested in all possible permutations of serially-diluted everolimus and Compound A single agent doses, in all combination assays, compounds were applied simultaneously. Single agent dose responding curves, IC50, IC90, and the Synergy are all analyzed using Chalice software (CombinatoRx, Cambridge, Mass.). Synergy was calculated by comparing a combination's response to those of its single agents, against the drug-with-itself dose-additive reference model. Deviations from dose additivity can be assessed visually on an Isobologram or numerically With a Combination Index. Excess inhibition compare to additivity can also be plotted as a full dose-matrix chart to capture where the synergies occur. To quantify the overall strength of combination effects, a volume score VHSA=ΣXYInfXInfY(Idata−IHSA) is also calculated between the data and the highest-single-agent surface, normalized for single agent dilution factors fX,fY[ref].
The cells were plated at 50000 cells/well in 96 well plates in triplicates, and treated with compound for 72 hrs prior to the measurement (FIG. 12). The following “dose matrix”, everolimus: 8 dose, 3×, 500 nM to 0.23 nM, Compound A: 8 dose, 2×, 1 μM to 8 nM, was applied.

In assay [2] the test system is MDA-MB-361 Human Breast Cancer cells. Nature of the assay: Cell proliferation assay (CellTiter-Glo) in MDA-MB-361. Particulars: for IC50: Homo sapiens. The assay is classed as cell-based. As to the method: as §1
The cells were plated at 2000 cells/well in […] in triplicates, and treated with compound for 72 hrs prior to the measurement. The following “dose matrix”, everolimus: 8 dose, 2×, 2000 nM to 15 nM, Compound A: 8 dose, 2×, 2 μM to 15 nM, was applied.

Assay [3] concerns GA-10 human Non-Hodgkin's Lymphoma cancer cells. Nature of the assay: Cell proliferation assay (CellTiter-Glo) in GA-10. The assay is classed as cell-based. As to the method: as §1, §2
The cells were plated at 50000 cells/well in 96 well plates in triplicate, and treated with compound for 72 hrs prior to the measurement (FIG. 10). The following “dose matrix”, everolimus: 8 dose, 3×, 500 nM to 0.23 nM, Compound A: 8 dose, 2×, 1 μM to 8 nM, was applied.

Assay [4] deals with p4EBP1 T37/46 in NCI-H23 cells. The assay is described as follows: High content p4EBP1 T37/46 assay in NCI-H23 cells. The assay is classed as cell-based, human. On the procedure: (§3) Automated imaging assay (or High-Content assay) for pS6 S240/244 and p4EBP1 T37/46: 2-4×10^3 cells were seeded in clear-bottom 384-well black plates (Greiner #781091) in 30 μl per well growth media 24 hours prior to treatment Compounds were added to the cell in 10 μl growth media and incubated overnight; the cells were then fixed by addition of 10 μl per well Mirsky's fixative (National Diagnostics #HS-102) for 1 hour, washed seven times with 30 μl/well TBS buffer using a BioTek plate washer, and blocked with 100 μl/well blocking buffer (TBS with 0.1% BSA and 0.1% Triton X-100). The anti-Ser 240/244 -RPS6 antibody (CST #4838, 1:150 dilution) or anti-Thr 37/46-p4EBP1 antibody (CST #2855, 1:150 dilution) were then incubated overnight at 4° C. After seven times wash with TBS, the cells were stained with Cy5-conjugated goat-anti-rabbit IgG 2nd antibody (Millipore #AP187S, 1:150 dilution) and DNA staining dye Neediest 33342 for 1.5 hours. The phospho-S6 and phospho-4EBP1 signals were-imaged using InCell 1000 Analyzer (BN_staining—10×protocol) at 10× magnification, 3 fields per well after seven times wash with TBS. For Hoechst 33342 signal; the excitation and emission wave lengths are 360 nm (D360—40× filter) and […] (HQ460—40M filter), respectively, and for Cy5, 620 nm (HQ620—60× filter) for both the excitation and emission wave lengths. Analysis of the images was done using the InCell Investigator software.
as §2
The cells were plated at 3000 cells per well in 384 well plates in quadruplicates, and treated with compound for 18 hrs before the measurement (FIGS. 1-2).

Assay [5] relates to pS6 S240/244 in NCI-H23 cells. Nature of the assay: High content pS6 S240/244 assay in NCI-H23 cells. The assay is classed as cell-based. Particulars: Homo sapiens, single agent, NCI-H23, 18 hrs; for IC50: read-out: IC50, inhibition of pS6 signal; for IC90: read-out: IC90, inhibition of pS6 signal. As to the method: as §3, §2
The experiment setup is identical to the p4EBP1 assay used for the NCI-H23 cell model (FIGS. 3-4). […]

For assay [6], the system named is SK-BR3 Human Breast Cancer cells. Nature of the assay: Cell proliferation assay (CellTiter-Glo) in SK-BR3. The assay is classed as cell-based. Particulars: for IC50: Homo sapiens, SK-BR-3. On the procedure: as §1
The cells were plated at 2000 cells/well in 96 well plates in triplicates, and treated with compound for 72 hrs prior to the measurement. The following dose matrix, everolimus: 8 dose, 2×, […] to 15 nM, Compound A: 8 dose, 2×, 2 μM to 15 nM, was applied.

[7] abbreviates: single agent, RPMI 8226, 72 hrs.
[8] abbreviates: single agent, MDA-MB-361, 72 hrs.
The mark [9] stands for this setting: single agent, SK-BR3, 72 hrs, read-out: IC50, inhibition of cell growth.

As to `Cn1c(=O)n(-c2ccc(C(C)(C)C#N)cc2)c2c3cc(-c4cnc5ccccc5c4)ccc3ncc21` [Compound A, 2-methyl-2-[4-(3-methyl-2-oxo-8-quinolin-3-yl-2,3-dihydro-imidazo[4,5-c]quinolin-1-yl)-phenyl]-propionitrile], the “full effective dose amount of Compound A” value was over 125 nM in assay [1] (Compound A alone, RPMI 8226); 16 to 62 nM in assay [1] (with trace amount (sub-nanomolar) of everolimus, RPMI 8226); over 250 nM in assay [3] (Compound A alone, GA-10); 16 to 62 nM in assay [3] (with trace amount (sub-nanomolar) of everolimus, GA-10). For the same molecule, the IC50 in assay [1] (concomitant everolimus, RPMI 8226, read-out: IC50 for Compound A, cell growth) is 16 nM; in assay [1] (single agent, RPMI 8226, 72 hrs, read-out: IC50, inhibition of cell growth), about 125 nM; in assay [2] (concomitant everolimus, MDA-MB-361, read-out: IC50 for Compound A, cell growth), under 15 nM; in assay [2] (single agent, MDA-MB-361, 72 hrs, read-out: IC50, inhibition of cell growth), about 60 nM; in assay [3] (Homo sapiens, single agent, GA-10, 72 hrs, read-out: IC50, inhibition of cell growth), about 25 nM; in assay [4] (Homo sapiens, single agent, NCI-H23, 18 hrs, read-out: IC50, reduction of p4EBP1 signal), 10 nM. In addition, the 50% inhibitory concentration (IC50) in assay [5] is 5 nM; in assay [6] (concomitant everolimus, SK-BR3, read-out: IC50 for Compound A, cell growth), under 15 nM; in assay [6] (setting [9]), about 31 nM. Further, the Amax came to 0.7 in assay [1] (setting [7]); 0.81 in assay [2] (setting [8]); 1 in assay [3] (single agent, GA-10, 72 hrs); 0.67 in assay [6] (single agent, SK-BR3, 72 hrs). Further, the “full effective dose range of Compound A” value in assay [2] (Compound A alone, MDA-MB-361) was 120 nM; in assay [2] (with low dose everolimus, MDA-MB-361) it was under 15 nM; in assay [6] (Compound A alone, SK-BR3), 120 nM; in assay [6] (with low dose everolimus, SK-BR3), under 15 nM. Further, the concentration for an effect of 90% (IC90) was 250 nM in assay [3] (Homo sapiens, GA-10, 72 h, single agent, GA-10, 72 hrs, read-out: IC90, inhibition of cell growth); 16 nM in assay [3] (Homo sapiens, GA-10, concomitant everolimus, GA-10, read-out: IC90 for Compound A, cell growth); about 300 nM in assay [3] (single agent, GA-10, 72 hrs, read-out: IC90, inhibition of cell growth); 5 nM in assay [4] (Homo sapiens, in combination with 5 nM everolimus, NCI-H23, read-out: IC90 for Compound A, p4EBP1 signal); 80 nM in assay [4] (Homo sapiens, single agent, NCI-H23, 18 hrs, read-out: IC90, reduction of p4EBP1 signal); about 20 nM in assay [5]. The “concentration at which p4EBP1 signal reduction plateaued (complete inhibition)” value in assay [4] (single agent, NCI-H23) is at least 167 nM. Also, the “reduction of IC90 for Compound A, p4EBP1 signal” value in assay [4] (with 5 nM everolimus vs Compound A alone) was 16 fold.

For the molecule `CO[C@H]1C[C@@H]2CC[C@@H](C)[C@@](O)(O2)C(=O)C(=O)N2CCCC[C@H]2C(=O)O[C@H]([C@H](C)C[C@@H]2CC[C@@H](OCCO)[C@H](OC)C2)CC(=O)[C@H](C)/C=C(\C)[C@@H](O)[C@@H](OC)C(=O)[C@H](C)C[C@H](C)/C=C/C=C/C=C/1C` [everolimus, 40-O-(2-hydroxyethyl)-rapamycin, reference compound], the Amax in assay [1] (setting [7]) is on record as 0.15; in assay [2] (setting [8]), under 0.50; in assay [3] (single agent, GA-10, 72 hrs) it was 0.3; in assay [6] (single agent, SK-BR3, 72 hrs), 0.50. Besides, the p4EBP1 signal reduction result in assay [4] (single agent, all concentrations tested 5 nM-1.2 μM, NCI-H23) was “approximately 30%”. The values for the IC50 in assay [5] and in assay [6] (setting [9]) were under 5 nM and under 15 nM, respectively. The IC90 in assay [5] is about 10 nM.
